Data as given in patent US20250313575A1, “MACROCYCLES AS LRRK2 INHIBITORS, PHARMACEUTICAL COMPOSITIONS, AND USES THEREOF” (Merck Sharp & Dohme LLC, priority 2022, published 2025).

What follows are compounds tested against GST-tagged truncated human mutant G2019S LRRK2 (Homo sapiens (Human), UniProt Q5S007, G2019S) (assay: LRRK2 G2019S Km ATP LanthaScreen assay). Conditions: G2019S LRRK2, 134 μM ATP (Km ATP), LRRKtide substrate.
Assay type: biochemical
Method in brief: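 Ten-point compound series (highest 9.99 μM in DMSO) preincubated 15 min with 1.25 nM GST-tagged truncated human LRRK2 G2019S, then 90 min reaction at ambient temperature with 134 μM ATP (Km) and fluorescein-labelled LRRKtide, pH 8.5. Phosphorylation read as 520/495 nm emission ratio via Tb-labelled antibody; IC50 from 4P logistic regression.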

Sequence of GST-tagged truncated human mutant G2019S LRRK2 (Q5S007 970-2527 G2019S): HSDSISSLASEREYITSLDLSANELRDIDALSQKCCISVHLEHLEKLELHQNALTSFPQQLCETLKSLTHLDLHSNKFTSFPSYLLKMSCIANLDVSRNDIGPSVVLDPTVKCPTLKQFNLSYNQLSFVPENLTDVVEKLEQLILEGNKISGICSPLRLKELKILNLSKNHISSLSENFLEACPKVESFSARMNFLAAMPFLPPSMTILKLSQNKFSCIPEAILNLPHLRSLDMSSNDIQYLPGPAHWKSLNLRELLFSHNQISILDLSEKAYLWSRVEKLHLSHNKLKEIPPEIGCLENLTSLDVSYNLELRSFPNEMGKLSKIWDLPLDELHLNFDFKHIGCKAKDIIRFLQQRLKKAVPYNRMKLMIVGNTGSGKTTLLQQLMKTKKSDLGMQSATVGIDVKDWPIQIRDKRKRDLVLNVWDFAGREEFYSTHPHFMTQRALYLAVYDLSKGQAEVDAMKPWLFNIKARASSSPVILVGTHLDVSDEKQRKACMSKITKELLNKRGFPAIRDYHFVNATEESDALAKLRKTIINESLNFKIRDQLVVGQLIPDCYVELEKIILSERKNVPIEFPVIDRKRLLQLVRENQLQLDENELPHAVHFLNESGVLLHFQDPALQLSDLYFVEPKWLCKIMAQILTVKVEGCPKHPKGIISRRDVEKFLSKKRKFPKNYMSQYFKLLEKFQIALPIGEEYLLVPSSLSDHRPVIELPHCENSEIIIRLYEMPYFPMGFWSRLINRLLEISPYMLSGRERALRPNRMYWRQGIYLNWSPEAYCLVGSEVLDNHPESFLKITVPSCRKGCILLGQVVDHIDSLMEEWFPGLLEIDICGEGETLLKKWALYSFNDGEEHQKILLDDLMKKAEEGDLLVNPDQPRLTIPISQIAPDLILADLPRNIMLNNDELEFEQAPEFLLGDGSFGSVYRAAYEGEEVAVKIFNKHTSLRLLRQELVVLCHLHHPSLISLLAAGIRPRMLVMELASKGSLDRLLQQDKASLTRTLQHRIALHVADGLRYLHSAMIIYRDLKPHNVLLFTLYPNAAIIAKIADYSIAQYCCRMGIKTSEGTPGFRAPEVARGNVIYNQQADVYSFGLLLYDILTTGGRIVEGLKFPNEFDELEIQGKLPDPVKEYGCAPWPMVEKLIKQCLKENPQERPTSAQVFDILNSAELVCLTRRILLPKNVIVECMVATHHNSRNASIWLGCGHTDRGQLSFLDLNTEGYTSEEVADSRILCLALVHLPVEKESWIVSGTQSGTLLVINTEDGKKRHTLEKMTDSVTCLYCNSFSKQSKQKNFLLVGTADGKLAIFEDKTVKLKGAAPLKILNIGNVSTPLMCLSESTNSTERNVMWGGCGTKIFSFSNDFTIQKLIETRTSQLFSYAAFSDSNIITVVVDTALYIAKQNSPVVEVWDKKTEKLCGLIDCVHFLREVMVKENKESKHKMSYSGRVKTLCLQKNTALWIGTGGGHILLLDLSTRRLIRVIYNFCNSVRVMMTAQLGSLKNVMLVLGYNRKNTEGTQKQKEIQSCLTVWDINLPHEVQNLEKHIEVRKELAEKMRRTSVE

Structure (SMILES)	LRRK2 pIC50
COC1CCC1n1nc(C)c2c1Nc1ncc(C(F)(F)F)c(n1)NC1COCC1CO2 [Ex-2.36, (10aS,13aS)-3-((1R,2R)-(10aS,13aS)-3-((1S,2R)-(10aS,13aS)-3-((1R,2S)-(10aS,13aS)-3-((1R,2R)-(10aR,13aR)-3-((1S,2R)-(10aR,13aR)-3-((1R,2S)-2-methoxycyclobutyl)-1-methyl-8-(trifluoromethyl)-3,4,10a,11,13a,14-hexahydro-10H,13H-5,9-(azeno)furo[3,4-k]pyrazolo[4,3-b][1]oxa[4,6,10]triazacyclotridecine]	6.31
COC1CC(n2nc(C)c3c2Nc2ncc(C(F)(F)F)c(n2)N[C@@H]2CC[C@H]2CO3)C1 (stereo partly drawn) [Ex-2.78, (10aR,12aR)-3-(3-methoxycyclobutyl)-1-methyl-8-(trifluoromethyl)-3,4,10,10a,11,12,12a,13-octahydro-5,9-(azeno)cyclobuta[k]pyrazolo[4,3-b][1]oxa[4,6,10]triazacyclotridecine]	>10.09
CC(C)n1nc(C2C[C@@H]2C#N)c2c1Nc1ncc(C(F)(F)F)c(n1)N[C@@H]1COC[C@H]1CO2 (single isomer, unassigned) [Ex-2.44, (1S,2S)- or (1R,2R)-2-((10aS,13aS)-3-isopropyl-8-(trifluoromethyl)-3,4,10a,11,13a,14-hexahydro-10H,13H-5,9-(azeno)furo[3,4-k]pyrazolo[4,3-b][1]oxa[4,6,10]triazacyclotridecin-1-yl)cyclopropane-1-carbonitrile]	8.80
Cc1nn(C2CCC2)c2c1OC[C@@H]1CC[C@H]1Nc1cc(ncc1F)N2 [Ex-13.6, (10aR,12aR)-3-cyclobutyl-8-fluoro-1-methyl-3,4,10,10a,11,12,12a,13-octahydro-5,9-(metheno)cyclobuta[k]pyrazolo[4,3-b][1]oxa[4,6,10]triazacyclotridecine]	<5.00
N#CC1CC1c1nn(C2CCC2)c2c1OC[C@@H]1COC[C@H]1Nc1nc(ncc1C(F)(F)F)N2 (single isomer, unassigned) [Ex-2.50, (1R,2R)- or (1S,2S)-2-((10aS,13aS)-3-cyclobutyl-8-(trifluoromethyl)-3,4,10a,11,13a,14-hexahydro-10H,13H-5,9-(azeno)furo[3,4-k]pyrazolo[4,3-b][1]oxa[4,6,10]triazacyclotridecin-1-yl)cyclopropane-1-carbonitrile]	9.77
Cc1cnc2nc1N[C@H](C)CCOc1c(c(C)nn1C(C)(C)CO)N2 [Ex-8.1, (R)-2-methyl-2-(3,8,11-trimethyl-10,11,12,13-tetrahydro-5,9-(azeno)pyrazolo[3,4-b][1]oxa[4,6,10]triazacyclotridecin-1 (4H)-yl)propan-1-ol]	>10.09
COC1CCC1n1nc(C)c2c1Nc1ncc(C(F)(F)F)c(n1)NC1COCC1CO2 [Ex-2.41, (10aS,13aS)-3-((1R,2R)-(10aS,13aS)-3-((1S,2R)-(10aS,13aS)-3-((1R,2S)-(10aS,13aS)-3-((1R,2R)-(10aR,13aR)-3-((1S,2R)-(10aR,13aR)-3-((1R,2S)-2-methoxycyclobutyl)-1-methyl-8-(trifluoromethyl)-3,4,10a,11,13a,14-hexahydro-10H,13H-5,9-(azeno)furo[3,4-k]pyrazolo[4,3-b][1]oxa[4,6,10]triazacyclotridecine]	6.51

Same assay, conditions: G2019S LRRK2, 134 μM ATP (Km ATP), LRRKtide substrate; read-out: LRRK2 pIC50 (converted)

Structure (SMILES)	IC50 [nM]
Cc1nn(C)c2c1CCC[C@@H](C)Nc1nc(ncc1C(F)(F)F)N2 (single isomer, unassigned) [Ex-11.2, (R)- or (S)-1,3,7-Trimethyl-10-(trifluoromethyl)-4,5,6,7,8,14-hexahydro-1H-9,13-(azeno)pyrazolo[4,3-l][1,3,7]triazacyclotridecine]	3.16
Cc1nn(C)c2c1OC[C@H]1COC[C@H]1Nc1nc(ncc1C(F)(F)F)N2 (single isomer, unassigned) [Ex-2.25, (10aS,13aR)- or (10aR,13aS)-1,3-dimethyl-8-(trifluoromethyl)-3,4,10a,11,13a,14-hexahydro-10H,13H-5,9-(azeno)furo[3,4-k]pyrazolo[4,3-b][1]oxa[4,6,10]triazacyclotridecine]	28.2
